Measurements taken from patent US9339423B2, “Absorbent article” (UNICHARM CORPORATION, priority 2012, dated 2016).
Like-named read-outs stand apart in the source and are kept apart here.

Assays:
[1] = Absorbent body migration rate of sanitary napkin; settings: horse EDTA blood, after second dropping; agent coated about 5 g/m^2
Method: (§1) A commercially available sanitary napkin was prepared. The sanitary napkin was formed from a top sheet, formed of a hydrophilic agent-treated air-through nonwoven fabric (composite fiber composed of polyester and polyethylene terephthalate, basis weight: 35 g/m^2), a second sheet, formed of an air-through nonwoven fabric (composite fiber composed of polyester and polyethylene terephthalate, basis weight: 30 g/m^2), an absorbent body comprising pulp (basis weight: 150-450 g/m^2, increased at the center section), an acrylic super-absorbent polymer (basis weight: 15 g/m^2) and tissue as a core wrap, a water-repellent agent-treated side sheet, and a back sheet composed of a polyethylene film.
(§2) The skin contact surface of the top sheet of the sanitary napkin was coated with the aforementioned blood modifying agent. Each blood modifying agent was used directly, when the blood modifying agent was liquid at room temperature, or when the blood modifying agent was solid at room temperature it was heated to its […], and a control seam HMA gun was used for atomization of the blood modifying agent and coating onto the entire skin contact surface of the top sheet to a basis weight of about 5 g/m^2.
(§3) (obtained by adding appropriate amount of ethylenediaminetetraacetic acid (hereunder, “EDTA”) to horse blood to prevent coagulation) was dropped through the hole using a pipette (once), and after 1 minute, 3 g of horse EDTA blood at 37±1° C. was again added dropwise through the acrylic board hole with a pipette (twice).
In addition to the rewetting rate evaluation, the “absorbent body migration rate” was also measured as the time until migration of blood from the top sheet to the absorbent body after the second dropping of blood. The absorbent body migration rate is the time from introducing the blood onto the top sheet, until the redness of the blood […] on the surface and in the interior of the top sheet.

[2] = at 20° C.; cited from earlier work
[3] = Rewetting rate of sanitary napkin with blood modifying agent-coated top sheet; settings: horse EDTA blood 3 g twice at 37±1° C.; agent coated about 5 g/m^2 on top sheet
Method: as §1, §2, §3

[4] = Water solubility, visual evaluation after 24 hours
Source text: As used herein, the term “solubility” in regard to water solubility includes cases where the sample completely dissolves in deionized water to form a homogeneous mixture, and cases where the sample is completely emulsified. As used herein, “completely” means that no mass of the sample remains in the deionized water.

Molecule	Absorber migration rate [1] [s]	further results
CCCCCCCCCCCC(=O)OCC(O)CO (stereo not drawn) [Monomuls 90-L2 lauric acid monoglyceride, lauric acid monoglyceride]	7	–
CCCCCCCCCCCCOC(=O)CCCCCCCCCCC [ELECTOL WE20, Ester of dodecanoic acid (C12) and dodecyl alcohol (C12)]	5	–
CCCCC(=O)CCCC [5-nonanone]	–	Vapor pressure [2]: about 230 Pa
CCCCCCCC(=O)OCC(COC(=O)CCCCCCC)OC(=O)CCCCCCC [PANACET 800]	3	–
CCCCCCCCOC(=O)CCCCC(=O)OCCCCCCCC [Dioctyl adipate]	6	–
Caprylic acid diglyceride	9	–
Isopropyl citrate	5	–
CCCCCCCCCCCCCC(=O)OCCCCCCCCCCCC [ELECTOL WE40, Ester of tetradecanoic acid (C14) and dodecyl alcohol (C12)]	4	–
CC(C)CCCCCCCCCCCCCCCOC(=O)CC(O)C(=O)OCCCCCCCCCCCCCCCC(C)C (stereo not drawn) [Diisostearyl malate]	8	Rewetting rate (%) [3]: 5.5%; Water solubility (g) [4]: 20< g
CCCCC(CC)C(=O)OCC(C)(C)COC(=O)C(CC)CCCC (stereo not drawn) [UNISTAR H-208BRS, Neopentylglycol di-2-ethylhexanoate]	5	–
CCCCOC(=O)CC(CC(=O)OCCCC)(OC(C)=O)C(=O)OCCCC [Tributyl O-acetylcitrate]	8	Rewetting rate (%) [3]: 6.2%; Water solubility ([4]; in 100 g of water at 25° C., 24 hours): <0.05 g
CCCCC(CC)C(=O)OCC(COC(=O)C(CC)CCCC)OC(=O)C(CC)CCCC (stereo not drawn) [PANACET 800B]	3	Rewetting rate (%) [3]: 2.0%; Water solubility [4]: <0.05 g
